Data from US20060141546A1, “Bacterial test method by glycated label binding” (priority 2002, published 2006).

Assays:
[1] = buffers for ALP determinations; cited from earlier work
bacteria [2] = assay: Effect of divalent cations on ALP binding to bacteria (Example 7, Table 5, FIG. 12); conditions: for O.D. at 405 nm, With ALP: bacteria plus cation (CaCl2 1 mM, MgCl2 1 mM, ZnCl2 0.2 mM) with ALP; for O.D. at 405 nm, No ALP: bacteria plus cation (CaCl2 1 mM, MgCl2 1 mM, ZnCl2 0.2 mM)
Protocol: (§1) Bacterial cells (1 to 4.5×10^7 cells/mL) were washed twice with water after centrifugation to separate cells into a packed pellet from the supernatant liquid. The washed cells in pellet form were suspended in 20 μL of EPPS buffer (50 mM at pH 8.0) and 30 μL of water. […]
(§2) The mixture of glycated protein and bacterial cells was left at 25° C. for 15 minutes. The mixture was then centrifuged at 30,000 rpm for 30 minutes after which the bacterial cells formed a pellet at the bottom of the tube and were washed with water 4-5 times (50 μL). Centrifugation allows separation of glycoprotein bound to the bacteria cells from unbound glycated protein(s).
(§3) After washing, the bacterial pellets were suspended in 50 μL of borate buffer (25 mM at pH 9.0). A 5 μL aliquot of the suspension was assayed for detection of ALP binding by adding 5 μL of para-nitrophenol phosphate (PNPP, 100 mM), 50 μL sodium borate buffer (25 mM at pH 9.0) and 140 μL of water. […] The color was read at 405 nm using an ELISA plate reader between 15-30 min; the absorbance is directly proportional to the amount of ALP bound to the bacteria cell.

[3] = test system: bacteria (Sf—Staph. faec.; Ec: E. coli); assay: Effect of various cations on ALP binding to bacteria (Example 8, FIGS. 13-14); conditions: FIG. 13; for effect of various cations on ALP-binding (in words): cations 2 mM, bovine intestinal mucosa ALP
Protocol: as §1
as §2, with “was” for “were”
as §3

S. faec. [4] = assay: ALP binding to bacteria in presence of carbohydrates, polysaccharides, glycopeptides and lectins (Example 5, Table 3); conditions: ALP 100 mUnits plus 15 μg of additive
Protocol: (§4) Bacterial cells (1 to 4.5×10^7 cells/mL) were washed twice with water after centrifugation to separate cells into a packed pellet from the supernatant liquid. The washed cells in pellet form were suspended in 20 μl of EPPS buffer (50 mM at pH 8.0) and 30 μL of water. Hemoglobin (20 μg) was added as a blocking additive. Alkaline phosphatase (ALP) (100 mUnits) from bovine intestine and 15 μg of simple carbohydrates or proteoglycan or lectins, were added.
as §2
(§5) After washing, the bacterial pellets were suspended in 50 μL of sodium tetraborate buffer (25 mM at pH 9.5). A 5 uL aliquot of the suspension was assayed for detection of ALP binding by adding 5 μL of para-nitrophenol phosphate (PNPP, 100 mM), 50 μL sodium borate buffer (25 mM at pH 9.0) and 140 μL of water. […] The color is read at 405 nm using a ELISA plate reader between 15-30 min and the absorbance is directly proportional to the amount of ALP bound to the bacteria cell adhesions for glycated groups.

E. coli [5] = assay: as above; conditions: ALP 100 mUnits plus 15 μg of additive
Protocol: as §4, §2, §5

S. faec. [6] = assay: Competitive inhibition of ALP binding to bacteria by added protein (Example 3, Table 2); conditions: protein 2-40 μg added with ALP 2 μg
Protocol: (§6) Less than 20% was no inhibition (NI) and greater than 90% was complete inhibition (CI) with a binding constant great than ALP.
(§7) Bacterial cells (1 to 4.5×10^7 cells/mL) were washed twice with water after centrifugation to separate cells into a packed pellet from the supernatant liquid. The washed cells in pellet form were suspended in 20 ul of N-2-hydroxyethyl piperazine-N′-[3-propane sulfonic acid] EPPS buffer (50 mM at pH 8.0) and 30 μL of water. Glycated protein(s) (2-40 μg) were added. In some cases a glycated protein (2-40 μg) and bovine intestinal alkaline phosphatase (ALP) (2 μg or […]) were added and the binding of the glycated protein measured by the reduction of binding of ALP.
as §2
as §5, with “borate” for “sodium tetraborate”, “9.0).” for “9.5).”, “μL” for “uL”, “min. The” for “min and the”
(§8) Only a protein binding to the cell adhesions for glycated groups causes the inhibition of the binding of ALP by bacteria. A protein binding to the cell adhesions for glycated groups provides a positive number in Table 2.

E. coli [7] = assay: as above; conditions: protein 2-40 μg added with ALP 2 μg
Protocol: as §6, §7, §2
as §5, with “borate” for “sodium tetraborate”, “9.0).” for “9.5).”, “μL” for “uL”, “min. The” for “min and the”
as §8

bacteria [8] = assay: Competitive inhibition of ALP binding to bacteria (Example 3); conditions: for binding to bacteria compared with ALP: from complete inhibition of ALP binding
Protocol: as §6, §7, §2
as §5, with “borate” for “sodium tetraborate”, “9.0).” for “9.5).”, “μL” for “uL”, “min. The” for “min and the”
as §8

CC(N)(CO)CO [2-amino-2-methyl-1,3-propanediol]
pKa [1]: 8.6

CC(C)(N)CO [2-amino-2-methyl-1-propanol]
pKa [1]: 9.3

[Ca+2].[Cl-].[Cl-] [CaCl2]
O.D. at 405 nm, With ALP (bacteria [2]): 0.36 O.D.
O.D. at 405 nm, No ALP (bacteria [2]): 0.23 O.D.

[Co+2] [Co^+2]
effect of various cations on ALP-binding (in words) [3]: stimulate ALP-binding

[Cu+2] [Cu^2+]
effect of various cations on ALP-binding (in words) [3]: stimulate ALP-binding

O=C(O)CN(CCN(CC(=O)O)CC(=O)O)CC(=O)O [EDTA, reference compound]
ALP activity in the presence of EDTA ([3]; EDTA 10 mM): total inhibition

[Fe+2] [Fe^2+]
effect of various cations on ALP-binding (in words) [3]: stimulate ALP-binding

C[C@H](O)[C@@H](O)[C@@H](O)[C@H](O)C=O [Fucose]
absorbance (405 nm) of ALP bound to bacteria (S. faec. [4]): 2.3
absorbance (405 nm) of ALP bound to bacteria (E. coli [5]): 2.0

CC(=O)N[C@@H]1[C@@H](O)[C@@H](O)[C@@H](CO)O[C@H]1O [GalNAc, N-Acetyl-β-D-Galactosamine]
absorbance (405 nm) of ALP bound to bacteria (S. faec. [4]): 1.9
absorbance (405 nm) of ALP bound to bacteria (E. coli [5]): 1.8

CC(=O)N[C@@H]1[C@@H](O)[C@H](O)[C@@H](CO)O[C@H]1O [GlcNAc, N-Acetyl-β-D-Glucosamine]
absorbance (405 nm) of ALP bound to bacteria (S. faec. [4]): 2.0
absorbance (405 nm) of ALP bound to bacteria (E. coli [5]): 2.0

O=C[C@H](O)[C@@H](O)[C@H](O)[C@H](O)C(=O)O [Glucuronic acid]
absorbance (405 nm) of ALP bound to bacteria (S. faec. [4]): 2.0
absorbance (405 nm) of ALP bound to bacteria (E. coli [5]): 1.9

O=C[C@@H](O)[C@H](O)[C@@H](O)[C@H](O)C(=O)O [Iduronic acid]
absorbance (405 nm) of ALP bound to bacteria (S. faec. [4]): 2.0
absorbance (405 nm) of ALP bound to bacteria (E. coli [5]): 1.9

[Cl-].[Cl-].[Mg+2] [MgCl2]
O.D. at 405 nm, With ALP (bacteria [2]): 0.44 O.D.
O.D. at 405 nm, No ALP (bacteria [2]): 0.20 O.D.

C[C@@H](O[C@H]1[C@H](O)[C@@H](CO)OC(O)[C@@H]1N)C(=O)O (some centres unmarked) [Muramic Acid]
absorbance (405 nm) of ALP bound to bacteria (S. faec. [4]): 2.1
absorbance (405 nm) of ALP bound to bacteria (E. coli [5]): 1.8

CCC1(CC)C(=O)NC(=O)NC1=O [barbital]
pKa [1]: 7.44

OCCNCCO [diethanolamine]
pKa [1]: 8.7

Chondroitin sulfate A
absorbance (405 nm) of ALP bound to bacteria (S. faec. [4]): 1.3
absorbance (405 nm) of ALP bound to bacteria (E. coli [5]): 1.1

Chondroitin sulfate B
absorbance (405 nm) of ALP bound to bacteria (S. faec. [4]): 0.5
absorbance (405 nm) of ALP bound to bacteria (E. coli [5]): 0.9

Concanavalin A
absorbance (405 nm) of ALP bound to bacteria (S. faec. [4]): 0.1
absorbance (405 nm) of ALP bound to bacteria (E. coli [5]): 0.0

Hemoglobin [reference compound]
inhibition of the binding of ALP by bacteria (S. faec. [6]): <20%
inhibition of the binding of ALP by bacteria (E. coli [7]): <20%
inhibition of the binding of ALP by bacteria (in words) (bacteria [8]): did not inhibit the binding of ALP

Hyaluronic Acid
absorbance (405 nm) of ALP bound to bacteria (S. faec. [4]): 2.0
absorbance (405 nm) of ALP bound to bacteria (E. coli [5]): 1.8

Tamm-Horsfall protein (THP): glycated protein with one high-mannose and five complex or hybrid type chains
inhibition of the binding of ALP by bacteria (S. faec. [6]): 49%
inhibition of the binding of ALP by bacteria (E. coli [7]): 40%

Transferrin: glycated protein, simple carbohydrates
inhibition of the binding of ALP by bacteria (S. faec. [6]): 75%
inhibition of the binding of ALP by bacteria (E. coli [7]): 75%

polyarginine [reference compound]
inhibition of the binding of ALP by bacteria (in words) (bacteria [8]): not found to inhibit ALP activity

polyhistidine [reference compound]
inhibition of the binding of ALP by bacteria (in words) (bacteria [8]): not found to inhibit ALP activity

polylysine [reference compound]
inhibition of the binding of ALP by bacteria (in words) (bacteria [8]): not found to inhibit ALP activity

α-1-Antitrypsin: glycated protein as received from suppliers
inhibition of the binding of ALP by bacteria (S. faec. [6]): 74%
inhibition of the binding of ALP by bacteria (E. coli [7]): 84%

α-1-glycoprotein (AGP): glycated protein with five complex or hybrid type chains
inhibition of the binding of ALP by bacteria (S. faec. [6]): >90%
inhibition of the binding of ALP by bacteria (E. coli [7]): 86%
binding to bacteria compared with ALP (bacteria [8]): better binders than ALP

B1: beta-2-Glycoprotein: glycoprotein with one N-link complex type chain (protein, UniProt P02749 20-345, looked up)
Beta-2-glycoprotein 1: GRTCPKPDDLPFSTVVPLKTFYEPGEEITYSCKPGYVSRGGMRKFICPLTGLWPINTLKCTPRVCPFAGILENGAVRYTTFEYPNTISFSCNTGFYLNGADSAKCTEEGKWSPELPVCAPIICPPPSIPTFATLRVYKPSAGNNSLYRDTAVFECLPQHAMFGNDTITCTTHGNWTKLPECREVKCPFPSRPDNGFVNYPAKPTLYYKDKATFGCHDGYSLDGPEEIECTKLGNWSAMPSCKASCKVPVKKATVVYQGERVKIQEKFKNGMLHGDKVSFFCKNKEKKCSYTEDAQCIDGTIEVPKCFKEHSSLAFWKTDASDVKPC
inhibition of the binding of ALP by bacteria (S. faec. [6]): 61%
inhibition of the binding of ALP by bacteria (E. coli [7]): 74%

B2: Myoglobin: non-glycated protein as received from suppliers (protein, UniProt P02144 2-154, looked up)
Myoglobin: GLSDGEWQLVLNVWGKVEADIPGHGQEVLIRLFKGHPETLEKFDKFKHLKSEDEMKASEDLKKHGATVLTALGGILKKKGHHEAEIKPLAQSHATKHKIPVKYLEFISECIIQVLQSKHPGDFGADAQGAMNKALELFRKDMASNYKELGFQG
inhibition of the binding of ALP by bacteria (S. faec. [6]): <20%
inhibition of the binding of ALP by bacteria (E. coli [7]): <20%
inhibition of the binding of ALP by bacteria (in words) (bacteria [8]): did not inhibit the binding of ALP

B3: Uristatin: urinary trypsin inhibitor lacking the O-linked glycoconjugate chain (protein, UniProt P02760 206-352, looked up)
Inter-alpha-trypsin inhibitor …: AVLPQEEEGSGGGQLVTEVTKKEDSCQLGYSAGPCMGMTSRYFYNGTSMACETFQYGGCMGNGNNFVTEKECLQTCRTVAACNLPIVRGPCRAFIQLWAFDAVKGKCVLFPYGGCQGNGNKFYSEKECREYCGVPGDGDEELLRFSN
modifications: Inter-alpha-trypsin inhibitor light chain lacks O-linked glycan chain
inhibition of the binding of ALP by bacteria (S. faec. [6]): >90%
inhibition of the binding of ALP by bacteria (E. coli [7]): >90%
effect of fragmentation of the peptide chain on inhibition of ALP binding (bacteria [8]; fragmentation with protease): did not impact the inhibition
binding to bacteria compared with ALP (bacteria [8]): better binders than ALP

B4: Bikunin: urinary trypsin inhibitor with two glycoconjugate chains and two Kunitz inhibitor domains (protein, UniProt P02760 206-352, looked up)
Inter-alpha-trypsin inhibitor …: B3 Inter-alpha-trypsin inhibitor …
modifications: Inter-alpha-trypsin inhibitor light chain
inhibition of the binding of ALP by bacteria (S. faec. [6]): >90%
inhibition of the binding of ALP by bacteria (E. coli [7]): >90%
binding to bacteria compared with ALP (bacteria [8]): better binders than ALP
